Reference: publication PMC6130198 (ACS chemical biology, 2018)

Columns and labels:
Hck = Hck (Homo sapiens, UniProt P08631); experiment: Z'-LYTE in vitro kinase assay; type: biochemical; conditions: data not shown
Syk = Syk (Homo sapiens, UniProt P43405); experiment: Z'-LYTE in vitro kinase assay; type: biochemical; conditions: data not shown
Fgr = Fgr (Homo sapiens, UniProt P09769); experiment: Z'-LYTE in vitro kinase assay; type: biochemical; conditions: data not shown
Fes = Fes (Homo sapiens, UniProt P07332); experiment: Z'-LYTE in vitro kinase assay; type: biochemical; conditions: data not shown
Fes, sequence (P07332 whole entry): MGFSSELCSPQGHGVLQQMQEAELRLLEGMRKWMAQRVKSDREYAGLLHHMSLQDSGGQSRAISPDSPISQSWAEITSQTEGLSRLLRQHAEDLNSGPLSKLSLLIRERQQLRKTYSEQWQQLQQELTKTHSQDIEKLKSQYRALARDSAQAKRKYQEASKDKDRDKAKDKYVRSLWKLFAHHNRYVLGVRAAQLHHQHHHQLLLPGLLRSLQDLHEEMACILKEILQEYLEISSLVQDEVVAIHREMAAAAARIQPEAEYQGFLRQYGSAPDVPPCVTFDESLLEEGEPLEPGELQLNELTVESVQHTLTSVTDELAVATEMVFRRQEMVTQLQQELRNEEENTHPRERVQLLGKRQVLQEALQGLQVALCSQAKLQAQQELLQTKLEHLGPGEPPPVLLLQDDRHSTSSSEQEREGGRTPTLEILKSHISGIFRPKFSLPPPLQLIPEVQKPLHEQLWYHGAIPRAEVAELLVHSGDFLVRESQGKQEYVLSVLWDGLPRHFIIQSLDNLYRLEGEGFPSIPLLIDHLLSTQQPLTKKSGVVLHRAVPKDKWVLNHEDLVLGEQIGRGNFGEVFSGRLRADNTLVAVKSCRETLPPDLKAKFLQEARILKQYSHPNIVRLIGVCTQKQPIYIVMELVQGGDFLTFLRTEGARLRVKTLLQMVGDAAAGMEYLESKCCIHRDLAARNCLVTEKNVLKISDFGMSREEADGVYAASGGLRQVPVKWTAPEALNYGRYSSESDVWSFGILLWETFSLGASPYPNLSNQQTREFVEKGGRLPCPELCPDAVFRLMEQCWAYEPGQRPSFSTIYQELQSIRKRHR

Flt3-ITD = experiment: Z'-LYTE in vitro kinase assay; type: biochemical; conditions: stated in words only
[1] = biological target: other myeloid Src-family kinases; experiment: In vitro kinase assay; type: biochemical; conditions: data not shown
MV4–11 AML cells = experiment: MV4–11 AML cell xenograft model in NSG mice; conditions: 10 mg/kg once daily oral gavage, three weeks

Fgr, sequence (P09769 whole entry): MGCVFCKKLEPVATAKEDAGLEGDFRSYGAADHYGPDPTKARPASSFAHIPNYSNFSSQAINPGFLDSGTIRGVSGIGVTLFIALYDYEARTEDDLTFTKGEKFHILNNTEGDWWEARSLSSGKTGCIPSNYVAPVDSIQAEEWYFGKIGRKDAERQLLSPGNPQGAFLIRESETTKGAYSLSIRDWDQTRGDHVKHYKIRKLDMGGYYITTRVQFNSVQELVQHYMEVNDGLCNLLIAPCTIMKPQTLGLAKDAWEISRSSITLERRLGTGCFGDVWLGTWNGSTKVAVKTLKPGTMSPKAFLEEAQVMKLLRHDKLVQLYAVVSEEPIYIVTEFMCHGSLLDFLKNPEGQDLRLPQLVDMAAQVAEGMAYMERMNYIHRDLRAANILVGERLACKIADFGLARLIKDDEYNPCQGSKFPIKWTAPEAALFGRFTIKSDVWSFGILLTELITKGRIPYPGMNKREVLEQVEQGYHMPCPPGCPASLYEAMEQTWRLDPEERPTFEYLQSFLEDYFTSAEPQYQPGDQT
Hck, sequence (P08631 whole entry): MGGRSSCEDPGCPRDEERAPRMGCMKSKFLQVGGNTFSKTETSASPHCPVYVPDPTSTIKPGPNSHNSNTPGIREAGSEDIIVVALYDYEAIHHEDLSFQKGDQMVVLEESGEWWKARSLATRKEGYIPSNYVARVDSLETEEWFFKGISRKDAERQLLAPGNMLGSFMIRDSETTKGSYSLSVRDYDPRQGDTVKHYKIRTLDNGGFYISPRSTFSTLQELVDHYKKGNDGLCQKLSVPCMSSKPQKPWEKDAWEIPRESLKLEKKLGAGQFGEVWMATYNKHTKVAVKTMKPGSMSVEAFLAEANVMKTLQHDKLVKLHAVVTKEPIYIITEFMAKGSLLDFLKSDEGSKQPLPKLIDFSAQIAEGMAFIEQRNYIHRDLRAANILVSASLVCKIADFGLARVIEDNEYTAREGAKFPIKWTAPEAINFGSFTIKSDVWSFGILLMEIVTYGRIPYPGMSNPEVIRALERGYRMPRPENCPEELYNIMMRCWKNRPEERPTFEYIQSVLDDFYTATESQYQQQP

Row | SMILES | inhibition of kinase in vitro (Hck) | inhibition of kinase in vitro (Syk) | inhibition of kinase in vitro (Fgr) | inhibition of kinase in vitro (Fes) | inhibition of Flt3-ITD kinase activity in vitro (Flt3-ITD) | IC50 [1] [µM] | MV4–11 cells in bone marrow thin sections (human CD45 immunohistochemistry) (MV4–11 AML cells) | MV4–11 cells in spleen thin sections (human CD45 immunohistochemistry) (MV4–11 AML cells) | effect on leukemic cells in the peripheral blood (MV4–11 AML cells; flow cytometry) | effect on spleen engraftment of MV4–11 cells (MV4–11 AML cells; flow cytometry) | reduction of bone marrow engraftment of MV4–11 cells (MV4–11 AML cells; flow cytometry)
1 | CC(C)(C)c1cc(NC(=O)Nc2ccc(-c3cn4c(n3)sc3cc(OCCN5CCOCC5)ccc34)cc2)no1 [quizartinib] | does not inhibit | does not inhibit | does not inhibit | does not inhibit | – | – | – | – | – | – | –
2 | CNC(=O)c1cc(Oc2ccc(NC(=O)Nc3ccc(Cl)c(C(F)(F)F)c3)cc2)ccn1 [sorafenib] | does not inhibit | does not inhibit | does not inhibit | does not inhibit | nM inhibitor | > 100 | still stained strongly for MV4–11 cells | still stained strongly for MV4–11 cells | significant reduction | no effect | no effect
3 | CCN(CC)CCNC(=O)c1c(C)[nH]c(/C=C2\C(=O)Nc3ccc(F)cc32)c1C [sunitinib] | does not inhibit | – | does not inhibit | – | – | – | – | – | – | – | –
4 | COc1cc2c(N3CCN(C(=O)Nc4ccc(OC(C)C)cc4)CC3)ncnc2cc1OCCCN1CCCCC1 [tandutinib] | does not inhibit | does not inhibit | does not inhibit | does not inhibit | – | – | – | – | – | – | –
